This note sets out measurements from patent US9394285B2 (Pfizer Inc., priority 2013, dated 2016).

For this test, the target named is human AMPK (full-length γ1, β1 and α1 subunits) (Homo sapiens (Human), UniProt Q13131+Q9Y478). In words: AMPK in vitro biochemical assay (33P-based, SAMS peptide, PP2A dephosphorylation). The settings on record: for EC50: activation of phosphorylated AMPK, 33P-ATP, SAMS peptide, PP2A treatment, 4-parameter fit; for Emax: read-out: Maximum. An excerpt: We designed a tricistronic AMPK expression construct that included open reading frames encoding the full-length γ1, β1 and α1 subunits of human AMPK with a ribosome-binding site (RBS) ahead of each coding region and subcloned this into pET-14b expression vector (Novagen, Madison, Wis.) using standard molecular biology techniques. AMPK tricistronic construct was transformed into E. coli BL21-CodonPlus™ (DE3)-RIPL strain (Stratagene) and transformants were selected on LB (Luria-Bertani) agar plates containing ampicillin (100 μg/ml). […] Optical density sample measurements were made on an UltroSpec 2000 spectrophotometer (Pharmacia Biotech) at 600 nm. When the cell density reached ˜0.9 OD, the temperature was reduced to 18° C. and the culture was induced at 18° C. with 0.1 mM Isopropylthiogalactoside (IPTG). […] The cell pellets were aliquoted into four portions, flash frozen in liquid nitrogen and were stored at −80° C. until purification. For purification, frozen cell paste was thawed and resuspended in 50 ml lysis buffer (50 mM Tris, pH 8.0, 150 mM NaCl, 10% glycerol, 2 mM Tris-2-carboxyethyl phosphine (TCEP), 20 mM imidazole and 0.001% Triton X-100). After sonication, insoluble material was removed by centrifugation at 15,000 rpm in a Sorvall® RC5 plus centrifuge for 30 min at 4° C. and the supernatant was loaded onto a 5 ml HisTrap™ HP column (GE Healthcare, Piscataway, N.J.) and washed with five column volumes of lysis buffer. Bound proteins were eluted using an elution buffer containing 300 mM imidazole. Fractions containing AMPK subunits were pooled based on SDS-10% PAGE analysis and dialyzed overnight in dialysis buffer (50 mM Tris, pH 8.0, 150 mM NaCl, 10% glycerol, 2 mM TCEP, and 0.001% Triton X-100). […] The phosphorylated AMPK complex was re-purified on HisTrap™ HP column as before, dialyzed over night in dialysis buffer. The phosphorylated AMPK complex was further purified by gel filtration chromatography with a Superdex 200 HiLoad 16/60 column (GE Healthcare) in SEC buffer (50 mM Tris, pH 8.0, 150 mM NaCl, 10% glycerol, 2 mM TCEP, and 0.001% Triton X-100).
The harvest time (72 hours post infection) was indicated by percent cell viability (to 85-90%) and increased cell diameter (3-4 μm). […] For purification, the cell paste was resuspended in 500 mL lysis buffer (50 mM Tris pH 8.0, 150 mM NaCl, 25 mM imidazole, 10% glycerol, 2 mM MgCl2, 2 mM TCEP+protease inhibitor cocktail. After lysis, cellular debris was removed by centrifugation at 36K×g for 1 hour. The resulting supernatant was filtered at 0.2 micron before applying to a 1 mL nickel charged IMAC column (HisTrap, GE). The bound resin was washed to baseline with 50 CV of 50 mM Tris pH 8.0, 150 mM NaCl, 25 mM imidazole, 10% glycerol, 2 mM MgCl2, 2 mM TCEP before eluting over a 20 CV gradient to 100% with wash buffer containing 500 mM imidazole. Pooled fractions containing PP2A were combined and diluted 10× with 50 mM Tris pH 8.0, 10% glycerol, 1 mM TCEP and applied to a 1 mL AIEX resin (HiTrap QFF, GE). The bound resin was washed with dilution buffer and PP2A was eluted over a 20 CV gradient to 100% 50 mM Tris pH 8.0, 500 mM NaCl, 10% glycerol, 1 mM TCEP and was further diluted 1:1 with 50 mM Tris pH 8.0, 150 mM NaCl, 10% glycerol, and 1 mM TCEP buffer.
The biochemical EC50 (half-maximal concentration required for full activation) of compounds for the activation of AMPK was evaluated by ^33P-based assay using SAMS peptide (commercially available) derived from ACC-1. Twenty μl of phosphorylated AMPK diluted in assay buffer, (50 mM HEPES, 1 mM EGTA, 10 mM MgCl2, 0.25 mM DTT, 0.01% Tween-20, 0.01% BSA (pH 7.5)) was added to 384 well plates containing 1 μL of test compound. Following a fifteen minute room temperature incubation, 10 μL of protein phosphatase PP2A was added to the plate to dephosphorylate pThr172 of AMPK. […] The reaction was terminated after 60 minutes incubation at room temperature by the addition of 15 μL of 2% H3PO4.

[1] abbreviates: counts as % of positive control wells (enzyme, allosteric activator or AMP, PP2A and substrate).

Chain of human AMPK (full-length γ1, β1 and α1 subunits) (Q13131 whole entry): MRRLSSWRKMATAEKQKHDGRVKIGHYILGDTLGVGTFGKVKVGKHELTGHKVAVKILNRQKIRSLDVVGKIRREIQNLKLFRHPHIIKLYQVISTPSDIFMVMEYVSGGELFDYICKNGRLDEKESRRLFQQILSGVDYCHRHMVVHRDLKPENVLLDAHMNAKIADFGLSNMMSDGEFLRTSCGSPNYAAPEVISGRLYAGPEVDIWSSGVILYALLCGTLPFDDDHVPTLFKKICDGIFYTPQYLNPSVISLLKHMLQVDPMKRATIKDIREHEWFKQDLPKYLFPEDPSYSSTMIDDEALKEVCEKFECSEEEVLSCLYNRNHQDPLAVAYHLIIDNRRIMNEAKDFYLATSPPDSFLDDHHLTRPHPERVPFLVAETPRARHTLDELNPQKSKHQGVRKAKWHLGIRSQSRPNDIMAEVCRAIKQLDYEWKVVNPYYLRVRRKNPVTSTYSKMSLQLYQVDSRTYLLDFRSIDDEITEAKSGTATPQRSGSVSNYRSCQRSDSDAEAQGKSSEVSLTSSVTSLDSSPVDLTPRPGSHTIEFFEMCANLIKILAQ
Chain of human AMPK (full-length γ1, β1 and α1 subunits) (Q9Y478 whole entry): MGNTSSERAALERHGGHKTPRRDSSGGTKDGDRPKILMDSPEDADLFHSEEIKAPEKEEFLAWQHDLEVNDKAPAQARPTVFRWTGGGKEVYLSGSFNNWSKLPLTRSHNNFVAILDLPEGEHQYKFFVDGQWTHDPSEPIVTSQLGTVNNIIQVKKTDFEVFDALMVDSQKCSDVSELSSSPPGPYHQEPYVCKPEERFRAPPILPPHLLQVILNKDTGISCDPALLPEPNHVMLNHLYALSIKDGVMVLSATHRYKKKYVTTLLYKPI
Chain of human AMPK (full-length γ1, β1 and α1 subunits) (P54619 whole entry partner): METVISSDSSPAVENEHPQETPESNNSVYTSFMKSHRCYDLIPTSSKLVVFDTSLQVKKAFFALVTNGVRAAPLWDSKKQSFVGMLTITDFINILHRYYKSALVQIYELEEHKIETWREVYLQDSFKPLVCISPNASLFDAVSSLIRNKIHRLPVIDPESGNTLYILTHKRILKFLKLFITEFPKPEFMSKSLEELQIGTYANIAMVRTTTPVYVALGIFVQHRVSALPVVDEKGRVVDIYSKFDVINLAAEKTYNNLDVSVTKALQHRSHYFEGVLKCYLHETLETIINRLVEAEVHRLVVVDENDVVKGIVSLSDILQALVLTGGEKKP

Consider `O=C(O)c1c[nH]c2cc(F)c(-c3ccc(C4CCCCO4)cc3)cc12` (single isomer, unassigned) [Example 172, 6-fluoro-5-[4-(tetrahydro-2H-pyran-2-yl)phenyl]-1H-indole-3-carboxylic acid], for which the EC50 was 11 nM. The Maximum under setting [1] is on record as 101.1%.

`COc1nc(N2CCC(OC)C2)ccc1-c1cc2c(C(=O)O)c[nH]c2cc1Cl` (stereo in doubt) [Example 175, 6-chloro-5-{2-methoxy-6-[(3R)-3-methoxypyrrolidin-1-yl]pyridin-3-yl}-1H-indole-3-carboxylic acid] came in with an EC50 of 22.6 nM. Further, the Emax under setting [1] was 78.2%.

`COc1nc(N2CCC(OC)C2)ccc1-c1cc2c(C(=O)O)c[nH]c2cc1Cl` (stereo in doubt) [Example 176, 6-chloro-5-{2-methoxy-6-[(3S)-3-methoxypyrrolidin-1-yl]pyridin-3-yl}-1H-indole-3-carboxylic acid] showed an EC50 of 5.6 nM. The Emax under setting [1] stood at 62.4%.

`O=C(O)c1c[nH]c2cc(Cl)c(-c3ccc(CO)cc3)cc12` [Example 2, 6-Chloro-5-[4-(hydroxymethyl)phenyl]-1H-indole-3-carboxylic acid]: a half-maximal response (EC50) required 64.7 nM. Also, the Emax under setting [1] came out at 88%.

For `O=C(O)c1c[nH]c2cc(Cl)c(-c3ccccc3)cc12` [Example 3, 6-Chloro-5-phenyl-1H-indole-3-carboxylic acid], a half-maximal response (EC50) required 459 nM. Under setting [1], the Emax was 82%.

Turning to `O=C(O)c1c[nH]c2cc(Cl)c(-c3ccc(C4(O)COC4)cc3)cc12` [Example 5, 6-Chloro-5-(4-(3-hydroxyoxetan-3-yl)phenyl)-1H-indole-3-carboxylic acid], a half-maximal effect (EC50) was put at 35.7 nM. The Emax under setting [1] is 78%.

`O=C(O)c1c[nH]c2cc(F)c(-c3ccc(CO)cc3)cc12` [Example 7, 6-fluoro-5-[4-(hydroxymethyl)phenyl]-1H-indole-3-carboxylic acid]: the EC50 turned out to be 671 nM. For the same compound, the Emax under setting [1] was 78%.

`CC(=O)N1CC(Oc2ccc(-c3cc4c(C(=O)O)c[nH]c4cc3Cl)cc2)C1` [Example 8, 5-{4-[(1-acetylazetidin-3-yl)oxy]phenyl}-6-chloro-1H-indole-3-carboxylic acid] displayed an EC50 of 220 nM. Under setting [1], the Emax is 94%.

`CC(=O)N1CC(COc2ccc(-c3cc4c(C(=O)O)c[nH]c4cc3Cl)cc2)C1` [Example 9, 5-{4-[(1-acetylazetidin-3-yl)methoxy]phenyl}-6-chloro-1H-indole-3-carboxylic acid] returned an EC50 of 71.2 nM. Under setting [1], the Emax stood at 81%.

Turning to `CC(=O)NCCOc1ccc(-c2cc3c(C(=O)O)c[nH]c3cc2Cl)cc1` [Example 10, 5-{4-[2-(acetylamino)ethoxy]phenyl}-6-chloro-1H-indole-3-carboxylicacid], a half-maximal response (EC50) required 69.9 nM. Moreover, the Emax under setting [1] is 91%.

In the case of `O=C(O)c1c[nH]c2cc(Cl)c(-c3ccc(CC(=O)N4CCC4)cc3)cc12` [Example 11, 5-{4-[2-(azetidin-1-yl)-2-oxoethyl]phenyl}-6-chloro-1H-indole-3-carboxylic acid], the EC50 was determined as 554 nM. The Emax under setting [1] was determined as 73%.

`O=C(O)c1c[nH]c2cc(Cl)c(-c3ccc(C4(O)CCC4)cc3F)cc12` [Example 13, 6-chloro-5-[2-fluoro-4-(1-hydroxycyclobutyl)phenyl]-1H-indole-3-carboxylic acid] displayed an EC50 of 6.9 nM. Besides, the Emax under setting [1] was found to be 73%.

Take `CC(=O)N1CCC(c2ccc(-c3cc4c(C(=O)O)c[nH]c4cc3Cl)cc2)C1` (centres unmarked) [Example 15, 5-[4-(1-acetylpyrrolidin-3-yl)phenyl]-6-chloro-1H-indole-3-carboxylic acid]: the EC50 came out at 632 nM. Moreover, the Emax under setting [1] turned out to be 92%.

With `CS(=O)(=O)N1CCC(c2ccc(-c3cc4c(C(=O)O)c[nH]c4cc3Cl)cc2)C1` (centres unmarked) [Example 16, 6-chloro-5-{4-[1-(methylsulfonyl)pyrrolidin-3-yl]phenyl}-1H-indole-3-carboxylic acid], the EC50 was found to be 412 nM. In addition, under setting [1], the Emax turned out to be 114%.

`O=C(O)c1c[nH]c2cc(Cl)c(-c3ccc(C4CCNC4)cc3)cc12` (centres unmarked) [Example 17, 6-chloro-5-[4-(pyrrolidin-3-yl)phenyl]-1H-indole-3-carboxylic acid] yielded an EC50 of 126 nM. Moreover, under setting [1], the Emax is 107%.

Compound `O=C(O)c1c[nH]c2cc(Cl)c(-c3ccc(OC4COC4)cc3)cc12` [Example 18, 6-chloro-5-[4-(oxetan-3-yloxy)phenyl]-1H-indole-3-carboxylic acid] gave an EC50 of 181 nM. Further, the Emax under setting [1] was determined as 92%.

In turn, `O=C(O)c1c[nH]c2cc(Cl)c(-c3ccc(OCCN4CCOCC4)cc3)cc12` [Example 19, 6-chloro-5-{4-[2-(morpholin-4-yl)ethoxy]phenyl}-1H-indole-3-carboxylic acid] gave an EC50 of 383 nM. For the same compound, the Emax under setting [1] worked out at 96%.

Turning to `O=C(O)c1c[nH]c2cc(F)c(-c3ccc(C4(O)COC4)cc3)c(F)c12` [Example 20, 4,6-difluoro-5-[4-(3-hydroxyoxetan-3-yl)phenyl]-1H-indole-3-carboxylic acid], the EC50 is 53.6 nM. Moreover, under setting [1], the Emax came to 62%.

In turn, `CC(C)(CO)COc1ccc(-c2cc3c(C(=O)O)c[nH]c3cc2Cl)cc1` [Example 21] had an EC50 of 93.5 nM. Further, the Emax under setting [1] amounted to 86%.

`O=C(O)c1c[nH]c2cc(F)c(-c3ccc(C4(CO)CC4)cc3)c(F)c12` [Example 22, 4,6-difluoro-5-(4-(1-(hydroxymethyl)cyclopropyl)phenyl)-1H-indole-3-carboxylic acid] yielded an EC50 of 13.7 nM. In addition, the Emax under setting [1] was 122%.

Compound `O=C(O)c1c[nH]c2cc(F)c(-c3ccc(OCCO)cc3)c(F)c12` [Example 24, 4,6-difluoro-5-[4-(2-hydroxyethoxy)phenyl]-1H-indole-3-carboxylic acid] showed an EC50 of 252 nM. Moreover, under setting [1], the Emax was determined as 91%.

Consider `COc1cc(-c2cc3c(C(=O)O)c[nH]c3cc2F)ccc1C1(O)CCC1` [Example 25, 6-fluoro-5-[4-(1-hydroxycyclobutyl)-3-methoxyphenyl]-1H-indole-3-carboxylic acid], for which a half-maximal effect (EC50) was put at 111 nM. Further, under setting [1], the Emax came to 78%.

The compound `CC(C)(CO)c1ccc(-c2c(F)cc3[nH]cc(C(=O)O)c3c2F)cc1` [Example 26, 4,6-difluoro-5-[4-(1-hydroxy-2-methylpropan-2-yl)phenyl]-1H-indole-3-carboxylic acid] had an EC50 of 124 nM. For the same compound, the Emax under setting [1] is 74%.

Regarding `Cc1cc2[nH]cc(C(=O)O)c2cc1-c1ccc(C2(CO)CC2)cc1` [Example 27, 5-{4-[1-(hydroxymethyl)cyclopropyl]phenyl}-6-methyl-1H-indole-3-carboxylic acid], the EC50 amounted to 36.9 nM. Under setting [1], the Emax was 107%.

As to `O=C(O)c1c[nH]c2cc(F)c(-c3ccc(OCCCO)cc3)c(F)c12` [Example 28, 4,6-difluoro-5-[4-(3-hydroxypropoxy)phenyl]-1H-indole-3-carboxylic acid], the midpoint of the response, the EC50, lay at 1080 nM. The Emax under setting [1] was 98%.
